From patent US20120225097A1, “PIPERAZINECARBOXAMIDE DERIVATIVE USEFUL AS A MODULATOR OF FATTY ACID AMIDE HYDROLASE (FAAH)” (priority 2009, published 2012) come the findings set out here.

pIC50: −log10 of the molar value. Counter-ions that a name gives are not always drawn.

The target in the experiment is T1, human FAAH (Homo sapiens, UniProt O00519).
T1 construct: expressed in transfected cells
T1 sequence (O00519 1-579): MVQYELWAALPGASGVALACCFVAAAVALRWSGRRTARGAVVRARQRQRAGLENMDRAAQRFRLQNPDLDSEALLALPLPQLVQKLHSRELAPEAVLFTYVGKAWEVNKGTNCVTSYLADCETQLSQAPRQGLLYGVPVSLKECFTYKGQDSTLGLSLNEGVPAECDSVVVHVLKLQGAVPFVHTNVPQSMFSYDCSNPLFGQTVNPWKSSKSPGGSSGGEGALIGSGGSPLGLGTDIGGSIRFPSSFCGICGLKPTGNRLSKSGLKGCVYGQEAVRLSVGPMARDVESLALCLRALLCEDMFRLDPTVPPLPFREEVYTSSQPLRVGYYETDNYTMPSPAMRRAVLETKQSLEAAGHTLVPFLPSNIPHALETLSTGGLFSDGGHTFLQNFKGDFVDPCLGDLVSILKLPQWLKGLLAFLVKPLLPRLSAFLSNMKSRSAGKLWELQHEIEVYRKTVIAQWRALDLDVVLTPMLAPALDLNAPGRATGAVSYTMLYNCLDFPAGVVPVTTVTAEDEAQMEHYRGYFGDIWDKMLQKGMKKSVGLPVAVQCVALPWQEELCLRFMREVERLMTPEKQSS
The experiment can be described thus: Assay Method 1: FAAH assay, anandamide hydrolysis in cell homogenate. As to conditions: average value (standard error of the mean in parenthesis); 3H-AEA 80 nM, 1 h rt. It is filed as biochemical. As to the method:
A. Transfection of Cells with Human FAAH
A 10-cm tissue culture dish with a confluent monolayer of SK-N-MC cells was split 2 days (d) prior to transfection. Using sterile technique, the media was removed and the cells were detached from the dish by the addition of trypsin. One fifth of the cells were then placed onto a new 10-cm dish. Cells were grown in a 37° C. incubator with 5% CO2 in Minimal Essential Media Eagle with 10% Fetal Bovine Serum. After 2 d, cells were approximately 80% confluent. These cells were removed from the dish with trypsin and pelleted in a clinical centrifuge. The pellet was re-suspended in 400 μL complete media and transferred to an electroporation cuvette with a 0.4 cm gap between the electrodes. Supercoiled human FAAH cDNA (1 μg), corresponding to NCBI accession NM_001441, was added to the cells and mixed. The voltage for the electroporation was set at 0.25 kV, and the capacitance was set at 960 μF. After electroporation, the cells were diluted into complete media (10 mL) and plated onto four 10-cm dishes. Due to variability in the efficiency of electroporation, four different concentrations of cells were plated. The ratios used were 1:20, 1:10, and 1:5, with the remainder of the cells being added to the fourth dish. The cells were allowed to recover for 24 h before adding the selection media (complete media with 600 μg/mL G418). After 10 d, dishes were analyzed for surviving colonies of cells. Dishes with well-isolated colonies were used. Cells from individual colonies were isolated and tested.
T84 frozen cell pellets or transfected SK-N-MC cells (contents of 1×15 cm culture dishes) were homogenized in 50 mL of FAAH assay buffer (125 mM Tris, 1 mM EDTA, 0.2% Glycerol, 0.02% Triton X-100, 0.4 mM Hepes, pH 9). The assay mixture consisted of 50 μL of the cell homogenate, 10 μL of the test compound, and 40 μL of anandamide [1-^3H-ethanolamine] (^3H-AEA, Perkin-Elmer, 10.3 Ci/mmol), which was added last, for a final tracer concentration of 80 nM. The reaction mixture was incubated at rt for 1 h. […]

Usually pIC50 stands for the negative decadic logarithm of the IC50, by convention in mol/L. Take `O=C(Nc1cccnc1)N1CCN(Cc2cccc(Oc3ccc(Cl)cc3)c2)CC1` [4-({3-[(4-Chlorophenyl)oxy]phenyl}methyl)-N-pyridin-3-ylpiperazine-1-carboxamide]: the pIC50 is 8.62.

Regarding `O=C(Nc1cccnc1)N1CCN(Cc2cccc(Oc3ccc(C(F)(F)F)cc3)c2)CC1` [Example 1, N-Pyridin-3-yl-4-{3-[4-(trifluoromethyl)phenoxy]benzyl}piperazine-1-carboxamide, bis-hydrochloride dihydrate], the pIC50 was 9.00.

As to `O=C(Nc1cccnc1)N1CCN(Cc2cccc(Oc3ccc(Br)cc3)c2)CC1` [4-[3-(4-Bromophenoxy)benzyl]-N-pyridin-3-ylpiperazine-1-carboxamide], the pIC50 is 9.00.
